System: glycogen-phosphorylase (PYGL) gene expression
Assay: PYGL gene expression by qRT-PCR in Human Follicle Dermal Papilla Cells
Assay type: cell-based
Conditions: 6 μg/mL; serum-starved HFDPC, 24 h treatment; compared with positive control (starved cells), p<0.005
Protocol: The PromoCell® Human Follicle Dermal Papilla Cells (HFDPC) cell line was used to test the inhibitory activity on PYGL of maslinic acid and a Swertia chirata extract (dry extract on maltodextrins) alone or as a combination.
HFDPCs (DP; PromoCell GmbH, Heidelberg, Germany, batch 325Z017.1 and 322Z030.1) were grown in base culture medium (Follicle Dermal Papilla Cell Growth Medium) (PromoCell GmbH) supplemented with 4 μL/mL of bovine pituitary gland extract (Bovine Pituitary Extract), 0.04 mL/mL fetal serum, 1 ng/ml recombinant human fibroblast growth factor, 5 μg/mL recombinant human insulin (PromoCell). Cells were cultured with […] primocin (Invivogen, Toulouse, France, #ant-pm-2) in a humidified incubator with 5% CO2 at 37° C.
POSITIVE CONTROL: Cells treated in Follicle Dermal Papilla Cell Growth medium without serum (starved) under the same culture conditions.
NEGATIVE CONTROL: Untreated cells in Follicle Dermal Papilla Cell Growth medium under the same culture conditions.
PYGL gene expression was studied by RT-PCR.
When cells (HFDPC) reached about 80% confluence, they were detached with trypsin/EDTA and seeded at a density of 1×10^6 cells/mL into 12-well plates and incubated at 37° C., 5% CO2 (24 h). […]

Compound: CC1(C)CC[C@]2(C(=O)O)CC[C@]3(C)C(=CC[C@@H]4[C@@]5(C)C[C@@H](O)[C@H](O)C(C)(C)[C@@H]5CC[C@]43C)[C@@H]2C1 [maslinic acid, (2α,3β)-2,3-dihydroxyolean-12-en-28-oic acid]
- inhibition of PYGL gene expression: significantly inhibit (p<0.005)

— patent US20260224470A1, “Composition For Improving The Aesthetic Appearance Of Hair And Skin Appendages” (priority 2023, published 2026)
